Assays:
XBP1s = assay: Determination of XBP1s level induced by various compounds (RT-qPCR splicing assay), several cell lines; type: cell-based, human; details: for induction of XBP1s: in a time, cell or concentration dependent manner; for ER stress measured by XBP1s level (FIG. 6): Hep G2, MCF-7 and RPMI 8226 cells, 1, 2 or 4 hours
Description: (§1) This method applies to any mammalian cell line but was typically applied to human MM1s myeloma cells for EC50 and RPMI […] plasmacytoma cells for confirmation of selected compounds. Briefly, cells were grown in standard conditions and spread into 96 well tissue culture plates. Cells were treated with compounds with indicated concentration using serial dilutions. DTT (dithiothreitol) or compounds were added at the same time and cells were harvested after indicated hour's treatment. Cells treated with DTT alone were used as 100% XBP1s positive controls and cell left untreated were used as base line XBP1s level.
(§2) Splicing Assay: Total RNA was isolated from cells treated with compounds using Applied Biosystems RNAqueous kit. 1 μg of total RNA was reverse transcribed using Oligo dt (12-18) (Invitrogen). The cDNA was then amplified at 95° C. for 8 min and 30 sec, then 40 cycles at 95° C. for 15 sec and 63° C. for 1 min. Samples were run against a purified standard curve for both spliced and unspliced XBP1, and further normalized to internal house-keeping gene GAPDH.

HT-29 cells = assay: XBP1s level induced in HT-29 cells; type: cell-based, human
Description: as §1, §2
(§3) The same methods were used as above for Lestaurtinib.

A549 cells = assay: XBP1s level induced in A549 cells; type: cell-based, human
Description: (§4) Briefly, cells were grown in standard conditions and spread into 96 well tissue culture plates. Cells were treated with compounds with indicated concentration using serial dilutions. DTT (dithiothreitol) or compounds were added at the same time and cells were harvested after indicated hour's treatment. Cells treated with DTT alone were used as 100% XBP1s positive controls and cell left untreated were used as base line XBP1s level.
as §2, §3

human liver HUH-7 cells = assay: Subcutaneous HUH-7 liver cancer xenograft model, survival (Example 23); type: in vivo, Female BALB/c nude mice
Description: Female BALB/c nude mice were subcutaneously inoculated with human liver HUH-7 cells (from JCRB) to establish a xenograft model of liver cancer. The scheduled administration cycle was 28 days. Animals were assigned into 4 groups (n=10/group): one vehicle group, two single treatment groups (Orin 1001 administered at 80 mg/kg/day q.d. for 28 days; Sorafenib administered following a dose regimen of 18.25 mg/kg/day q.d. for 5 days, then 25 mg/kg/day q.d. for 3 days, and then 45 mg/kg/day q.d. for 20 days, consecutively) and one combination treatment group (sorafenib administered following a dose regimen of 18.25 mg/kg/day q.d. for 5 days, then 25 mg/kg/day q.d. for 3 days, and then 45 mg/kg/day q.d. for 20 days, consecutively, whilst combined with Orin 1001 administered q.d. at a dose of 80 mg/kg/day for 28 days). All vehicle or administration treatments were given via oral gavage. Sorafenib was formulated with Kolliphor® EL/ethanol (2/1, v/v) and water. Orin 1001 was dissolved with cellulose microcrystalline and sucrose in purified water to form as suspension. The mice were euthanized if a tumor volume achieved over 2000 mm^3. Otherwise the experiment ended on the 6th day after the last administration.

Hep3B-Luc cells = assay: Orthotopic Hep3B-luc human liver xenograft model (Example 22); type: in vivo, female BALB/c nude mice
Description: The tumor was inoculated by injecting Hep3B-Luc cells (established by WuXi AppTec R&D center) mixed with BD Matrigel in 20 μl (PBS:Matrigel=1:1) into the left lobe of the liver. […] Sorafenib was formulated with Cremophor® EL/ethanol (1:1) and purified water to form a solution of 9 mg/ml. […] Tumor weight was measured at the termination of study. T/Cweight value (in percent) was calculated using the formula: T/Cweight%=Tweight/Cweight×100%, while Tweight and Cweight were the mean tumor weights of the treated and the vehicle control groups, respectively.

MM1s cells = assay: XBP1s level induced in MM1s cells; type: cell-based, human
Description: as §1, §2, §3

Hepatoma cells = assay: XBP1s level induced in Hepatoma (Hep G2) cells; type: cell-based, human
Description: as §1, §2

MCF-7 cells = assay: XBP1s level induced in MCF-7 cells; type: cell-based, human
Description: as §1, §2, §3

RPMI 8226 cells = assay: XBP1s level induced in RPMI 8226 cells; type: cell-based, human
Description: as §4, §2, §3

Compound: O=C(CCCCCCC(=O)Nc1ccccc1)NO [Vorinostat]
- induction of XBP1s (XBP1s): able to induce XBP1s
- levels of XBP1s (HT-29 cells; 1 hour of treatment): high levels
- levels of XBP1s (HT-29 cells; 2 hours of treatment): little
- levels of XBP1s (HT-29 cells; 4 hours of treatment): little

Compound: CNC(=O)c1cc(Oc2ccc(NC(=O)Nc3ccc(Cl)c(C(F)(F)F)c3)cc2)ccn1 [Sorafenib]
- induction of XBP1s (XBP1s): able to induce XBP1s
- levels of XBP1s (A549 cells; 1 hour of treatment): highest levels
- levels of XBP1s (A549 cells; 2 hours of treatment): highest levels
- levels of XBP1s (A549 cells; 4 hours of treatment): modest levels
- Median Survival Time (MST) (human liver HUH-7 cells; Orin 1001 80 mg/kg/day q.d. 28 days, sorafenib 18.25/25/45 mg/kg, Kaplan-Meier): 24 days
- ILS (%) (increase of life span) (human liver HUH-7 cells; versus vehicle group (group 1)): 20%
- T/Cweight (%) (Hep3B-Luc cells; mean tumor weight treated / vehicle control, day 28): 19%
- Tumor Weight (g) at day 28 (Hep3B-Luc cells; oral gavage 28 consecutive days, Orin 1001 80 mg/kg/day, sorafenib 45 mg/kg/day): 0.91 ± 0.29 g

Compound: Clc1ccc(Nc2nnc(Cc3ccncc3)c3ccccc23)cc1 [Vatalinib]
- ER stress measured by XBP1s level (FIG. 6) (XBP1s): enhanced
- induction of XBP1s (XBP1s): able to induce XBP1s

Compound: COc1cc2ncnc(Nc3ccc(F)c(Cl)c3)c2cc1OCCCN1CCOCC1 [Gefitinib]
- induction of XBP1s (XBP1s): able to induce XBP1s
- levels of XBP1s (A549 cells; 1 hour of treatment): increasing
- levels of XBP1s (A549 cells; 2 hours of treatment): highest levels

Compound: Cc1cn(-c2cc(NC(=O)c3ccc(C)c(Nc4nccc(-c5cccnc5)n4)c3)cc(C(F)(F)F)c2)cn1 [Nilotinib]
- induction of XBP1s (XBP1s): able to induce XBP1s
- XBP1s induced (MM1s cells; 1 hour of treatment): modest amounts
- XBP1s induced (MM1s cells; 2 hours of treatment): greater than 50%
- XBP1s induced (MM1s cells; 4 hours of treatment): modest amounts

Compound: C=CCNC1=C2C[C@@H](C)C[C@H](OC)[C@H](O)[C@@H](C)/C=C(\C)[C@H](OC(N)=O)[C@@H](OC)/C=C\C=C(/C)C(=O)NC(=CC1=O)C2=O [17-AAG]
- induction of XBP1s (XBP1s): able to induce XBP1s
- levels of XBP1s (Hepatoma cells; 1 hour of treatment): high levels
- levels of XBP1s (Hepatoma cells; 2 hours of treatment): modest levels
- levels of XBP1s (Hepatoma cells; 4 hours of treatment): low levels
- levels of XBP1s (MCF-7 cells; 1 hour of treatment): high levels
- levels of XBP1s (MCF-7 cells; 2 hours of treatment): modest levels
- levels of XBP1s (MCF-7 cells; 4 hours of treatment): low levels

Compound: Nc1ccn([C@@H]2O[C@H](CO)[C@@H](O)C2(F)F)c(=O)n1 [Gemcitabine]
- induction of XBP1s (XBP1s): able to induce XBP1s
- levels of XBP1s (RPMI 8226 cells; 1 hour of treatment): low levels
- levels of XBP1s (RPMI 8226 cells; 2 hours of treatment): low levels
- levels of XBP1s (RPMI 8226 cells; 4 hours of treatment): high levels

Compound: CO[C@H]1C[C@@H]2CC[C@@H](C)[C@@](O)(O2)C(=O)C(=O)N2CCCC[C@H]2C(=O)O[C@H]([C@H](C)C[C@@H]2CC[C@@H](OC(=O)C(C)(CO)CO)[C@H](OC)C2)CC(=O)[C@H](C)/C=C(\C)[C@@H](O)[C@@H](OC)C(=O)[C@H](C)C[C@H](C)/C=C/C=C/C=C/1C [Torisel®, Temsirolimus]
- ER stress measured by XBP1s level (FIG. 6) (XBP1s): enhanced
- induction of XBP1s (XBP1s): able to induce XBP1s
- levels of XBP1s (A549 cells; 1 hour of treatment): high levels
- levels of XBP1s (A549 cells; 2 hours of treatment): modest levels
- levels of XBP1s (A549 cells; 4 hours of treatment): high levels
